Reference: ChEMBL document CHEMBL3525934 (Drug Metab Dispos, 2013)

Legend:
Assay type in all cases: ADME
Settings in all cases: 0.5 h
Cytochrome P450 1A2 = target: T1, Cytochrome P450 1A2 (Homo sapiens, UniProt P05177); test: Drug metabolism in supersomes expressing human recombinant CYP1A2 assessed as enzyme-mediated N-desmethylclozapine metabolite formation at 10 uM after 30 mins measured per nmol of P450 by HPLC analysis
T1 sequence (P05177 whole entry): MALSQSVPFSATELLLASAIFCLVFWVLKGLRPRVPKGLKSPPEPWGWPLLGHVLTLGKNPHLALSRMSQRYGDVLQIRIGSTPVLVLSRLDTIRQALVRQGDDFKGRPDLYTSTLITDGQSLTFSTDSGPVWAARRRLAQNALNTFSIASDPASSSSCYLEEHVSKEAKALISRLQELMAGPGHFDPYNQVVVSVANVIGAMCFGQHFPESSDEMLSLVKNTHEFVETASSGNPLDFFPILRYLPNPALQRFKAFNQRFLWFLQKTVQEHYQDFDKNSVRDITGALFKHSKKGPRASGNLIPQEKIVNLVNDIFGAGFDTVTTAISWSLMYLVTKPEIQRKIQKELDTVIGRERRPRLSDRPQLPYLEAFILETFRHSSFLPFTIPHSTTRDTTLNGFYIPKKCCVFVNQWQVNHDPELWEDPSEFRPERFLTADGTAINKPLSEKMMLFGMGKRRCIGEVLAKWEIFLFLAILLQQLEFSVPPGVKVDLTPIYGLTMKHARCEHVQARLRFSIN

Cytochrome P450 1B1 = target: T2, Cytochrome P450 1B1 (Homo sapiens, UniProt Q16678); test: Drug metabolism in supersomes expressing human recombinant CYP1B1 assessed as enzyme-mediated N-desmethylclozapine metabolite formation at 10 uM after 30 mins measured per nmol of P450 by HPLC analysis
T2 sequence (Q16678 whole entry): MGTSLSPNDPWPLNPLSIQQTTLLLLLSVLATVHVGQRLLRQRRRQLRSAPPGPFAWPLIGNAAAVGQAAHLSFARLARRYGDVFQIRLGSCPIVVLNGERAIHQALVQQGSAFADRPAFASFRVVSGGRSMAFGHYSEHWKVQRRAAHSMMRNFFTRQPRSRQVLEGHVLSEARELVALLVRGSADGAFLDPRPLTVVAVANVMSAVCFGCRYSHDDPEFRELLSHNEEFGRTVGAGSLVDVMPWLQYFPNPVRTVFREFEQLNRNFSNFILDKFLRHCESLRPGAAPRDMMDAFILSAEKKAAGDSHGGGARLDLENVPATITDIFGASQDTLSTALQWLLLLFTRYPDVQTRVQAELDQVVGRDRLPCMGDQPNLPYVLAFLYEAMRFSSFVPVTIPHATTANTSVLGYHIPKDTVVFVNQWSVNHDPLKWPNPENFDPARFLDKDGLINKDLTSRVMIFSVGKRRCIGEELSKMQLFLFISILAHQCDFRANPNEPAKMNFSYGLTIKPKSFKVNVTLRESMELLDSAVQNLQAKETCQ

Cytochrome P450 2C18 = target: T3, Cytochrome P450 2C18 (Homo sapiens, UniProt P33260); test: Drug metabolism in supersomes expressing human recombinant CYP2C18 assessed as enzyme-mediated clozapine-N-oxide metabolite formation at 100 uM after 30 mins measured per nmol of P450 by HPLC analysis
T3 sequence (P33260 whole entry): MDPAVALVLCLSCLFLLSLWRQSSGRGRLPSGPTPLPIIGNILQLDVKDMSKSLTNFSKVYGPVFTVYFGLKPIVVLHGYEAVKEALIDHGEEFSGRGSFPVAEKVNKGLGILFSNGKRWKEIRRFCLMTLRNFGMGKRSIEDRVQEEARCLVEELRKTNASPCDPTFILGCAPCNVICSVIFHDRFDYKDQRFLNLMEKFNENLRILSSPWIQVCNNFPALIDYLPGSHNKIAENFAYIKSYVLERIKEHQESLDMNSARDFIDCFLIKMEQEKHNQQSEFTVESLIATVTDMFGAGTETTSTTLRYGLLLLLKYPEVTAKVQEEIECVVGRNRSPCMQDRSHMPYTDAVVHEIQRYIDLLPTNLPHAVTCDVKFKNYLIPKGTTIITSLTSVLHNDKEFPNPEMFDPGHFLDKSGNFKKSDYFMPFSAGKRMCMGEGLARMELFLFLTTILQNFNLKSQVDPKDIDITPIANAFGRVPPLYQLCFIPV

Cytochrome P450 1A1 = target: T4, Cytochrome P450 1A1 (Homo sapiens, UniProt P04798); test: Drug metabolism in supersomes expressing human recombinant CYP1A1 assessed as enzyme-mediated N-desmethylclozapine metabolite formation at 100 uM after 30 mins measured per nmol of P450 by HPLC analysis
T4 sequence (P04798 whole entry): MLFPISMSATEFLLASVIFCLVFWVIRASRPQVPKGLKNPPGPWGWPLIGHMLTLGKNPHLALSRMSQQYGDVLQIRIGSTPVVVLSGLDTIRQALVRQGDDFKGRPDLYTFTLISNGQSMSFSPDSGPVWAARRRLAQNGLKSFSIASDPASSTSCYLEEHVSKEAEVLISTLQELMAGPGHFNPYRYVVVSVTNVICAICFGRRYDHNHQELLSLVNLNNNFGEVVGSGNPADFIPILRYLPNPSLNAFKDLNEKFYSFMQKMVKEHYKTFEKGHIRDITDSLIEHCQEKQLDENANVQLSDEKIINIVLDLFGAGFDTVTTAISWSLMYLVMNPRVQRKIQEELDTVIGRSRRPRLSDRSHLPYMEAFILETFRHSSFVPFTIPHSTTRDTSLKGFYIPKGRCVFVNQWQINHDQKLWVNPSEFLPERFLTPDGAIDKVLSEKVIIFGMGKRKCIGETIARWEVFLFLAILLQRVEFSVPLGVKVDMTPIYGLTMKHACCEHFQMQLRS

Cytochrome P450 2C8 = target: T5, Cytochrome P450 2C8 (Homo sapiens, UniProt P10632); test: Drug metabolism in supersomes expressing human recombinant CYP2C8 assessed as enzyme-mediated N-desmethylclozapine metabolite formation at 100 uM after 30 mins measured per nmol of P450 by HPLC analysis
T5 sequence (P10632 whole entry): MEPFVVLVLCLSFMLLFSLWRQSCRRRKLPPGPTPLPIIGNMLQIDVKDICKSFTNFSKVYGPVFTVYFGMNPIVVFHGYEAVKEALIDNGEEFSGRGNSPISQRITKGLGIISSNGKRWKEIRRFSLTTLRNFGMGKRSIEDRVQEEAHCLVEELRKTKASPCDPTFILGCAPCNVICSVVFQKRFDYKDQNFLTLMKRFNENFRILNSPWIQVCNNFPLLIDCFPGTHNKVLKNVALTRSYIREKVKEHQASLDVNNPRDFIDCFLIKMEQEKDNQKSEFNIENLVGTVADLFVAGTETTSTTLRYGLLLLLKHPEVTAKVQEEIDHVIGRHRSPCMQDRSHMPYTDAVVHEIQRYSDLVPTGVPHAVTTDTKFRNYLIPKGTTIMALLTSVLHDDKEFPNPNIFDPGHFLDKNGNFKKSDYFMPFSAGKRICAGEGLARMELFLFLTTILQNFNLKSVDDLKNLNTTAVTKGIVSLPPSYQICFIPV

Cytochrome P450 2D6 = Cytochrome P450 2D6 (Homo sapiens, UniProt P10635); test: Drug metabolism in supersomes expressing human recombinant CYP2D6 assessed as enzyme-mediated N-desmethylclozapine metabolite formation at 100 uM after 30 mins measured per nmol of P450 by HPLC analysis
Sequence of Cytochrome P450 2D6 (P10635 whole entry): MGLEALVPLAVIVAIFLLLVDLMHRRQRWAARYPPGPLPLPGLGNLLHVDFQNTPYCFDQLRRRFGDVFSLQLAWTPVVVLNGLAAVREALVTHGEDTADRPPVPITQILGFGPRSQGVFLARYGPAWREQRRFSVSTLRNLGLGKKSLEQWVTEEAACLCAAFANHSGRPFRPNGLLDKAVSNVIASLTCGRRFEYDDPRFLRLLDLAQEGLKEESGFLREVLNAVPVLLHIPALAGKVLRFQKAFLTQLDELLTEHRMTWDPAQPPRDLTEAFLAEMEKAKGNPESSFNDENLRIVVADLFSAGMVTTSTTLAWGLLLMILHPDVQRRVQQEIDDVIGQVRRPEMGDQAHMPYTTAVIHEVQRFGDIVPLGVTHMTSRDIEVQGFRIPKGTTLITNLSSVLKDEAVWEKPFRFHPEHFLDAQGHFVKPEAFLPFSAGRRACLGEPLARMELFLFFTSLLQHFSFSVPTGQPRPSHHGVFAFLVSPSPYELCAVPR

## CN1CCN(C2=Nc3cc(Cl)ccc3Nc3ccccc32)CC1 [CLOZAPINE]
Cytochrome P450 1A2
  Drug metabolism: 1.12 nmol/min
Cytochrome P450 1B1
  Drug metabolism: 1.16 nmol/min
Cytochrome P450 2C18
  Drug metabolism: 0.065 nmol/min
Cytochrome P450 1A1
  Drug metabolism: 0.56 nmol/min
Cytochrome P450 2C8
  Drug metabolism: 0.89 nmol/min
Cytochrome P450 2D6
  Drug metabolism: 23.7 nmol/min
